Assay results: patent publication US10259810B2, “N-sulfonylated pyrazolo[3,4-b]pyridin-6-carboxamides and method of use” (AbbVie S.à.r.l., priority 2015, dated 2019)

Key:
Assay type in all cases: cell-based
ΔF508-CFTR [1] = biological target: T1, ΔF508-CFTR (Homo sapiens, UniProt P13569, DEL508-508); test: CFTR cell surface levels using HRP-tagged ΔF508-CFTR expressing CFBE cells, in the presence of a co-corrector; details: HRP-tagged ΔF508-CFTR CFBE cells, in the presence of 3 μM co-corrector; for EC50: read-out: EC50
T1 construct: host or cells: CFBE41o-, doxycycline-inducible
T1 sequence (P13569 with tags, fused parts or gaps DEL508-508): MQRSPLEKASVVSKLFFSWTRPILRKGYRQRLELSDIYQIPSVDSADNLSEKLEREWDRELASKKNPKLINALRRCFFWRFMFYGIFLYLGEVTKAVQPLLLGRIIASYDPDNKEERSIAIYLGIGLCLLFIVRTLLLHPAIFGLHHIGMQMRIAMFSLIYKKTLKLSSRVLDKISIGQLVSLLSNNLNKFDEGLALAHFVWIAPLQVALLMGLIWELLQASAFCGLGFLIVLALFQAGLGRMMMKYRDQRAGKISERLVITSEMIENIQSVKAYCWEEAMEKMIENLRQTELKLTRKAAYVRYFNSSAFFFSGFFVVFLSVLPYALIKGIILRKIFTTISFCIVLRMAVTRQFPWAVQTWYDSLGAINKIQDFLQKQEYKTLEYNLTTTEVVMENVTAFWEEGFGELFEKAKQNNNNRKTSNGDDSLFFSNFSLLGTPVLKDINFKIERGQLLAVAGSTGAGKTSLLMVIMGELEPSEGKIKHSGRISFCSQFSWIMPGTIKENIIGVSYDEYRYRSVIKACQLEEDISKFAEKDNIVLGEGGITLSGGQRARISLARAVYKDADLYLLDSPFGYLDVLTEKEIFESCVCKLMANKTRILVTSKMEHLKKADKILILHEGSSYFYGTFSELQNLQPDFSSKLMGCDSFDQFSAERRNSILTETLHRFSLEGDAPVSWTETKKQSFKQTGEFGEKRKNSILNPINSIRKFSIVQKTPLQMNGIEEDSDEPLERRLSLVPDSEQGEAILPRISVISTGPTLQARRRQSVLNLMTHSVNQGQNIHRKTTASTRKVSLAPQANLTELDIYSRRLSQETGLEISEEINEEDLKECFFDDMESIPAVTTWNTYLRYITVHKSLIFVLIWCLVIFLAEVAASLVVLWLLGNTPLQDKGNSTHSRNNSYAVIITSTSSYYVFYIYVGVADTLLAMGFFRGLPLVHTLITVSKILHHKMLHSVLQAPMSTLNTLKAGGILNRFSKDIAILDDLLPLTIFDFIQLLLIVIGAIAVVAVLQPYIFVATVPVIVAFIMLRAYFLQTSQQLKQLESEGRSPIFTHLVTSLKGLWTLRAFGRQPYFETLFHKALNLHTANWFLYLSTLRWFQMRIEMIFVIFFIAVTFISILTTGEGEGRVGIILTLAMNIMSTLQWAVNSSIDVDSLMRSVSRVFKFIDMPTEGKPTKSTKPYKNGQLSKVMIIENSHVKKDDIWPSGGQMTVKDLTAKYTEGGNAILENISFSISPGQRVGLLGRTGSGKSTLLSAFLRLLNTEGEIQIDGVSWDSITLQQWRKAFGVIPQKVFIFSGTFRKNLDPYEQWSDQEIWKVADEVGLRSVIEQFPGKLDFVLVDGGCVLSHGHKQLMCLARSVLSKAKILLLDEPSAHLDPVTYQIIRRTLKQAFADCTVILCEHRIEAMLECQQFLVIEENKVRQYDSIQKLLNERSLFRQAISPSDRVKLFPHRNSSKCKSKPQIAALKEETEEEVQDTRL
Procedure, shortened: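 Chemiluminescent read-out of surface HRP (15 min, dark) after PBS washes. Activity is normalized as 100×(sample−DMSO)/(3 μM co-corrector alone−DMSO).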

ΔF508-CFTR [2] = biological target: T1, ΔF508-CFTR; test: CFTR cell surface levels using HRP-tagged ΔF508-CFTR expressing CFBE cells, intrinsic corrector capacity; design: % Activation: concentration or dose not given beside the values; details: HRP-tagged ΔF508-CFTR expressing CFBE41o- cells, compound alone (intrinsic corrector capacity), 20 hours at 33° C.; for EC50: read-out: EC50
Procedure, shortened: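 Surface ΔF508-CFTR was measured as HRP chemiluminescence from an extracellular-loop-4 tag, expressed as percent activity between DMSO and a […] corrector control.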

CFTR ΔF508 = biological target: T2, CFTR ΔF508 (Homo sapiens, UniProt P13569, DEL508-508); test: Chronic TECC assay, primary bronchial epithelial cells of CF patients homozygous for CFTR ΔF508 (corrector, co-corrector and potentiator); details: chronic TECC, AUC = full area under the curve upon forskolin stimulation; for % Activity at 1 μM (AUC**): test compound at 1 μM; for EC50: read-out: EC50 (nM) (AUC**); for % Activity at 3 μM (AUC**): test compound at 3 μM
T2 construct: bronchial epithelial cells isolated from CF patients homozygous for the CFTR ΔF508 mutation; McGill University; Asterand; University of North Carolina hAEC-CF; host or cells: primary human bronchial epithelial cells from CF patients homozygous for ΔF508, differentiated at air-liquid interface
T2 sequence (P13569 with tags, fused parts or gaps DEL508-508): as above
Procedure, shortened: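 Primary bronchial epithelial cells from ΔF508-homozygous CF patients on collagen IV-coated Transwells were chronically treated with test compound plus corrector and potentiator, which were re-added before recording. Ieq was derived from PD and Rt in NaCl-Ringer, pH 7.4, at 37° C, with apical amiloride and bilateral forskolin, recorded every 2 min over 20 min. Ieq increase was normalized to controls, and EC50 was taken from per-well concentrations.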

| SMILES | % Activation (ΔF508-CFTR [1]) [%] | EC50 (ΔF508-CFTR [1]) [µM] | % Activation (ΔF508-CFTR [2]) [%] | EC50 (ΔF508-CFTR [2]) [µM] | % Activity at 1 μM (AUC**) (CFTR ΔF508) [%] | EC50 (CFTR ΔF508) [nM] | % Activity at 3 μM (AUC**) (CFTR ΔF508) [%] |
| --- | --- | --- | --- | --- | --- | --- | --- |
| COCCS(=O)(=O)NC(=O)c1cc(N2CCC(CN3CCOCC3)CC2)c2c(C3CCC3)nn(-c3ccc(F)cc3)c2n1 [Compound 447, 3-cyclobutyl-1-(4-fluorophenyl)-N-(2-methoxyethanesulfonyl)-4-{4-[(morpholin-4-yl)methyl]piperidin-1-yl}-1H-pyrazolo[3,4-b]pyridine-6-carboxamide] | 543.1 | 0.0647 | 330.9 | 0.244 | 330 | – | – |
| O=C(NS(=O)(=O)CCO)c1cc(N2CCC(N3CCOCC3)CC2)c2c(C3CCC3)nn(-c3ccc(F)cc3)c2n1 [Compound 448, 3-cyclobutyl-1-(4-fluorophenyl)-N-(2-hydroxyethanesulfonyl)-4-[4-(morpholin-4-yl)piperidin-1-yl]-1H-pyrazolo[3,4-b]pyridine-6-carboxamide] | 431.1 | 0.181 | 258.2 | 0.477 | 116.8948 | – | – |
| CN(C)S(=O)(=O)NC(=O)c1cc(N2CCC(N3CCOCC3)CC2)c2c(C3CCC3)nn(-c3ccccc3)c2n1 [Compound 456, 3-cyclobutyl-N-(dimethylsulfamoyl)-4-[4-(morpholin-4-yl)piperidin-1-yl]-1-phenyl-1H-pyrazolo[3,4-b]pyridine-6-carboxamide] | 457.7 | 0.0933 | 268.4 | 0.158 | 261.1621 | – | – |
| CN(C)S(=O)(=O)NC(=O)c1cc(N2CCN(c3ccncc3)CC2)c2c(C3CCC3)nn(C3CCCCC3)c2n1 [Compound 469, 3-cyclobutyl-1-cyclohexyl-N-(dimethylsulfamoyl)-4-[4-(pyridin-4-yl)piperazin-1-yl]-1H-pyrazolo[3,4-b]pyridine-6-carboxamide] | 469.4 | 0.125 | 253.8 | 0.204 | 293.3333 | 108 | – |
| CCS(=O)(=O)NC(=O)c1cc(N2CCN(c3ccncc3)CC2)c2c(C3CCC3)nn(C3CCCCC3)c2n1 [Compound 470, 3-cyclobutyl-1-cyclohexyl-N-(ethanesulfonyl)-4-[4-(pyridin-4-yl)piperazin-1-yl]-1H-pyrazolo[3,4-b]pyridine-6-carboxamide] | 485.5 | 0.115 | 275.4 | 0.231 | 210 | – | – |
| COCCN(C)S(=O)(=O)NC(=O)c1cc(N2CCC(N3CCOCC3)CC2)c2c(C3CCC3)nn(-c3ccc(F)cc3)c2n1 [Compound 471, 3-cyclobutyl-1-(4-fluorophenyl)-N-[(2-methoxyethyl)(methyl)sulfamoyl]-4-[4-(morpholin-4-yl)piperidin-1-yl]-1H-pyrazolo[3,4-b]pyridine-6-carboxamide] | 446.07 | 0.122 | 240.2 | 0.23 | 296.6667 | – | – |
| CN(C)S(=O)(=O)NC(=O)c1cc(N2CCC(N3CCCCC3)CC2)c2c(C3CCC3)nn(-c3ccc(F)cc3)c2n1 [Compound 472, 4-([1,4'-bipiperidin]-1'-yl)-3-cyclobutyl-N-(dimethylsulfamoyl)-1-(4-fluorophenyl)-1H-pyrazolo[3,4-b]pyridine-6-carboxamide] | 399.79 | 0.249 | 210.57 | 0.681 | 181.0865 | 34.2 | – |
| COCC1CCN(c2cc(C(=O)NS(C)(=O)=O)nc3c2c(C2CCC2)nn3-c2ccnc(C3CCOCC3)c2)CC1 [Compound 473, 3-cyclobutyl-N-(methanesulfonyl)-4-[4-(methoxymethyl)piperidin-1-yl]-1-[2-(oxan-4-yl)pyridin-4-yl]-1H-pyrazolo[3,4-b]pyridine-6-carboxamide] | 370.7 | 0.0439 | 166.3 | 0.0708 | 243.3333 | – | – |
| COc1cc(-n2nc(C3CCC3)c3c(N4CCC(N5CCOCC5)CC4)cc(C(=O)NS(C)(=O)=O)nc32)ccn1 [Compound 474, 3-cyclobutyl-N-(methanesulfonyl)-1-(2-methoxypyridin-4-yl)-4-[4-(morpholin-4-yl)piperidin-1-yl]-1H-pyrazolo[3,4-b]pyridine-6-carboxamide] | 390.2 | 0.524 | 194.5 | 0.581 | 226.6667 | – | – |
| C[C@@H](C1CCN(c2cc(C(=O)NS(=O)(=O)N(C)C)nc3c2c(C2CCC2)nn3-c2ccc(F)cc2)CC1)N1CCOCC1 [Compound 480, 3-cyclobutyl-N-(dimethylsulfamoyl)-1-(4-fluorophenyl)-4-{4-[(1S)-1-(morpholin-4-yl)ethyl]piperidin-1-yl}-1H-pyrazolo[3,4-b]pyridine-6-carboxamide] | 545.77 | 0.0871 | 322.45 | 0.136 | 548.575 | – | – |
| COC1CN(S(=O)(=O)NC(=O)c2cc(N3CCC(N4CCOCC4)CC3)c3c(C4CCC4)nn(-c4ccc(F)cc4)c3n2)C1 [Compound 484, 3-cyclobutyl-1-(4-fluorophenyl)-N-(3-methoxyazetidine-1-sulfonyl)-4-[4-(morpholin-4-yl)piperidin-1-yl]-1H-pyrazolo[3,4-b]pyridine-6-carboxamide] | 485.6 | 0.142 | 216.9 | 0.124 | 380 | – | – |
| O=C(NS(=O)(=O)N1CCOCC1)c1cc(N2CCC(N3CCOCC3)CC2)c2c(C3CCC3)nn(-c3ccc(F)cc3)c2n1 [Compound 487, 3-cyclobutyl-1-(4-fluorophenyl)-N-(morpholine-4-sulfonyl)-4-[4-(morpholin-4-yl)piperidin-1-yl]-1H-pyrazolo[3,4-b]pyridine-6-carboxamide] | 404.63 | 0.069 | 203.53 | 0.175 | 340 | – | – |
| CC(=O)N1CCN(C2CCN(c3cc(C(=O)NS(=O)(=O)N(C)C)nc4c3c(C3CCC3)nn4-c3ccc(F)cc3)CC2)CC1 [Compound 493, 4-[4-(4-acetylpiperazin-1-yl)piperidin-1-yl]-3-cyclobutyl-N-(dimethylsulfamoyl)-1-(4-fluorophenyl)-1H-pyrazolo[3,4-b]pyridine-6-carboxamide] | 480.78 | 0.0946 | 275.2 | 0.175 | 271.4141 | 371 | – |
| O=C(NS(=O)(=O)C1CCOC1)c1cc(N2CCC(CN3CCOCC3)CC2)c2c(C3CCC3)nn(-c3ccc(F)cc3)c2n1 (stereo not drawn) [Compound 495, 3-cyclobutyl-1-(4-fluorophenyl)-4-{4-[(morpholin-4-yl)methyl]piperidin-1-yl}-N-(oxolane-3-sulfonyl)-1H-pyrazolo[3,4-b]pyridine-6-carboxamide] | 469.08 | 0.0662 | 242.05 | 0.217 | – | – | 262.4635 |
| CN(C)S(=O)(=O)NC(=O)c1cc(N2CCC(N3CCC(C#N)CC3)CC2)c2c(C3CCC3)nn(-c3ccc(F)cc3)c2n1 [Compound 522, 4-(4-cyano[1,4'-bipiperidin]-1'-yl)-3-cyclobutyl-N-(dimethylsulfamoyl)-1-(4-fluorophenyl)-1H-pyrazolo[3,4-b]pyridine-6-carboxamide] | 525.66 | 0.0798 | 317.9 | 0.114 | 666.6667 | 21.9 | – |
| CN(C)S(=O)(=O)NC(=O)c1cc(N2CCC(N3CC(C#N)C3)CC2)c2c(C3CCC3)nn(-c3ccc(F)cc3)c2n1 [Compound 523, 4-[4-(3-cyanoazetidin-1-yl)piperidin-1-yl]-3-cyclobutyl-N-(dimethylsulfamoyl)-1-(4-fluorophenyl)-1H-pyrazolo[3,4-b]pyridine-6-carboxamide] | 451.33 | 0.1 | 236.53 | 0.124 | – | – | 460.2177 |
| CN(C)S(=O)(=O)NC(=O)c1cc(N2CCC(N3CCC(F)CC3)CC2)c2c(C3CCC3)nn(-c3ccc(F)cc3)c2n1 [Compound 525, 3-cyclobutyl-N-(dimethylsulfamoyl)-4-(4-fluoro[1,4'-bipiperidin]-1'-yl)-1-(4-fluorophenyl)-1H-pyrazolo[3,4-b]pyridine-6-carboxamide] | 460.3 | 0.074 | 274.75 | 0.138 | 477.2665 | 50.3 | – |
